According to patent US11254668B2, “Pyrazolo[1,5-A]pyrazin-4-yl and related derivatives” (Pfizer Inc., priority 2017, dated 2022):

How the values were obtained:
Type in all cases: biochemical
JAK1 = JAK1 (Homo sapiens (Human), UniProt P23458); experiment: JAK Caliper Enzyme Assay at 1 mM ATP, JAK1
Method in brief: (§1)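 IC50 (nM) derived from percent conversion of fluorescently labelled peptide, measured by Caliper LabChip mobility-shift separation after EDTA stop. Each JAK family kinase domain (human, recombinant) run at 1 mM ATP and room temperature, conditions set to 20-30% product; DMSO wells define uninhibited baseline.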

JAK3 = JAK3 (Homo sapiens (Human), UniProt P52333); experiment: JAK Caliper Enzyme Assay at 1 mM ATP, JAK3
JAK3, sequence (P52333 822-1111): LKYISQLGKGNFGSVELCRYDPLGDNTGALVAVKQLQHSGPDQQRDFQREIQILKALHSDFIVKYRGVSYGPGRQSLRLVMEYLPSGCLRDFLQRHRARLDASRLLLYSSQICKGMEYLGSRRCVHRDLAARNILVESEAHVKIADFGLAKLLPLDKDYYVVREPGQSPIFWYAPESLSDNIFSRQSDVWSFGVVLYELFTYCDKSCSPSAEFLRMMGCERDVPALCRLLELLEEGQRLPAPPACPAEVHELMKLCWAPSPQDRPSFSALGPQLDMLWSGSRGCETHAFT
Method in brief: as §1

JAK2 = JAK2 (Homo sapiens (Human), UniProt O60674); experiment: JAK Caliper Enzyme Assay at 1 mM ATP, JAK2
JAK2, sequence (O60674 849-1124): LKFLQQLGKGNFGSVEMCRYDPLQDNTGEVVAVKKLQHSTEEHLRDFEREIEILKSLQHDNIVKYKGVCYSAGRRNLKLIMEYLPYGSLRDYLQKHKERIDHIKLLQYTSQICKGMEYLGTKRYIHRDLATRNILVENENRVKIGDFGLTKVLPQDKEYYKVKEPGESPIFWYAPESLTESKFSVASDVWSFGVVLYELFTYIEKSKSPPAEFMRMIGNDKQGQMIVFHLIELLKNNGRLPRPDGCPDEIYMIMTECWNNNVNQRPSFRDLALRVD
Method in brief: (§2)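 Recombinant human kinase domains phosphorylate a fluorescent synthetic peptide at 1 mM ATP and room temperature, with enzyme level and time tuned to 20–30% conversion before an EDTA stop. Microfluidic mobility-shift separation gives percent product from peak heights. Percent effect against plate controls (DMSO baseline) is plotted versus compound concentration.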

TYK2 = TYK2 (Homo sapiens (Human), UniProt P29597); experiment: JAK Caliper Enzyme Assay at 1 mM ATP, TYK2
TYK2, sequence (P29597 897-1176): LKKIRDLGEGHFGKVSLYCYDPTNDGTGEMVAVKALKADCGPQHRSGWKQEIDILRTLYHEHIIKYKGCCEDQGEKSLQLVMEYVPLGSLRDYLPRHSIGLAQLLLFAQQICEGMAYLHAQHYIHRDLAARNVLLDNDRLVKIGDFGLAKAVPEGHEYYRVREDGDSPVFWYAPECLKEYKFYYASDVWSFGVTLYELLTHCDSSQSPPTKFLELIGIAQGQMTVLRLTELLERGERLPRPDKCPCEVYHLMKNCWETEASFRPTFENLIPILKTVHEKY
Method in brief: as §2

JAK1, sequence (P23458 875-1153): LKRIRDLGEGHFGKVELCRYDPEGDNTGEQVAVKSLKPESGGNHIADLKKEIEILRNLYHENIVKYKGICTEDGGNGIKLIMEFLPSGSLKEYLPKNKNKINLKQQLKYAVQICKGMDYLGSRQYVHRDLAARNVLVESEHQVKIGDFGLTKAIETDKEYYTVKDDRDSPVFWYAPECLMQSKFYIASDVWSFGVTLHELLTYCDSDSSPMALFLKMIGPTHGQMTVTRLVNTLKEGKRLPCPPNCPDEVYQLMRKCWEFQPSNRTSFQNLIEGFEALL

Row | SMILES | IC50 (JAK1) [nM] | IC50 (JAK3) [nM] | IC50 (JAK2) [nM] | IC50 (TYK2) [nM]
1 | Cc1nc(-c2cc(-c3cnn([C@]4(CC#N)C[C@@H](C#N)C4)n3)c3cccnc3c2)c[nH]1 [Example 337, trans-3-(cyanomethyl)-3-{4-[7-(2-methyl-1H-imidazol-4-yl)quinolin-5-yl]-2H-1,2,3-triazol-2-yl}cyclobutanecarbonitrile] | 2910 | > 10000 | 243 | 33
2 | Cn1nc(-c2cc3ncccc3c(-c3ccn([C@]4(CC#N)C[C@@](C)(C#N)C4)n3)n2)cc1N [Example 68, trans-3-{3-[7-(5-amino-1-methyl-1H-pyrazol-3-yl)-1,6-naphthyridin-5-yl]-1H-pyrazol-1-yl}-3-(cyanomethyl)-1-methylcyclobutanecarbonitrile] | > 10000 | > 10000 | 4330 | 1590
3 | CS(=O)(=O)N1CC(CC#N)(n2cc(-c3cc(-c4cc[nH]n4)cc4ncccc34)cn2)C1 [Example 288, [1-(methylsulfonyl)-3-{4-[7-(1H-pyrazol-3-yl)quinolin-5-yl]-1H-pyrazol-1-yl}azetidin-3-yl]acetonitrile] | 796 | > 10000 | 336 | 112
4 | CS(=O)(=O)N1CC(CC#N)(n2ccc(-c3nc(-c4cnn([C@@H]5CCOC5)c4)cc4ncccc34)n2)C1 [Example 124, {1-(methylsulfonyl)-3-[3-(7-{1-[(3R)-tetrahydrofuran-3-yl]-1H-pyrazol-4-yl}-1,6-naphthyridin-5-yl)-1H-pyrazol-1-yl]azetidin-3-yl}acetonitrile] | 715 | 9880 | 68 | 27

The next lines start with the values.

Row | IC50 (JAK1) [nM] | IC50 (JAK3) [nM] | IC50 (JAK2) [nM] | IC50 (TYK2) [nM] | SMILES
5 | 122 | 2730 | 48 | 8 | N#CC[C@]1(n2ncc(-c3cc(-c4cn[nH]c4)cc4ncccc34)n2)C[C@@H](C#N)C1 [Example 316, cis-3-(cyanomethyl)-3-{4-[7-(1H-pyrazol-4-yl)quinolin-5-yl]-2H-1,2,3-triazol-2-yl}cyclobutanecarbonitrile]
6 | > 10000 | > 10000 | 2300 | 675 | Cc1cn([C@]2(CC#N)C[C@H](C#N)C2)nc1-c1nc(-c2cc(N)n(C)n2)cc2ncccc12 [Example 277, cis-3-{3-[7-(5-amino-1-methyl-1H-pyrazol-3-yl)-1,6-naphthyridin-5-yl]-4-methyl-1H-pyrazol-1-yl}-3-(cyanomethyl)cyclobutanecarbonitrile]
7 | 525 | 7250 | 42 | 15 | CS(=O)(=O)c1ccc(-c2cc(-c3cnn([C@]4(CC#N)C[C@H](C#N)C4)n3)c3cccnc3c2)nc1 [Example 368, cis-3-(cyanomethyl)-3-(4-{7-[5-(methylsulfonyl)pyridin-2-yl]quinolin-5-yl}-2H-1,2,3-triazol-2-yl)cyclobutanecarbonitrile]
8 | 2580 | > 10000 | 670 | 99 | N#CC[C@]1(n2ncc(-c3cc(-c4cccc(N)n4)cc4ncccc34)n2)C[C@H](C#N)C1 [Example 357, trans-3-{4-[7-(6-aminopyridin-2-yl)quinolin-5-yl]-2H-1,2,3-triazol-2-yl}-3-(cyanomethyl)cyclobutanecarbonitrile]
9 | 475 | > 10000 | 431 | 23 | N#CCC1(n2ccc(-c3nc(-c4cc[nH]n4)cc4ncccc34)n2)CN(CC(F)(F)F)C1 [Example 16, [3-{3-[7-(1H-pyrazol-3-yl)-1,6-naphthyridin-5-yl]-1H-pyrazol-1-yl}-1-(2,2,2-trifluoroethyl)azetidin-3-yl]acetonitrile]
10 | > 10000 | > 10000 | 9670 | 285 | N#CCC1(n2ccc(-c3nc(-c4ccncc4F)cc4ncccc34)n2)CN(CC(F)(F)F)C1 [Example 179, [3-{3-[7-(3-fluoropyridin-4-yl)-1,6-naphthyridin-5-yl]-1H-pyrazol-1-yl}-1-(2,2,2-trifluoroethyl)azetidin-3-yl]acetonitrile]
